Laboratory results from patent US8383406B2, “Method for stimulating the proliferation of differentiated cells belonging to the chondrogenic lineage” (Maco Parma, priority 2007, dated 2013).
Where a SMILES comes first, the peptide text is derived from it.

Tests used:
[1] = system: hybridoma cells; conditions: added to the culture medium; WO 01/46220; cited from earlier work
[2] = system: human osteoarthritic chondrocytes; test: Calcein-AM test, viability and cytotoxicity of the cells; format: cell-based; conditions: 20 mM glycylglycine; cultured for 7 days; FIG. 3 curve C vs B
Protocol: (§1) The analyses were carried out using an FACScan cytometer equipped with ProCellQuest software, under the following experimental conditions: cells in suspension in a PBS isotonic buffer at pH 7.4, having an osmolality of 320-330 mOsmol/kg, with the number of cells analysed being 10,000.
The viability of the chondrocytes and the toxicity of the peptide were studied using the method developed by Bratosin et al (2005) and based on measuring the cellular esterase activity by means of calcein-AM.
Principle—Calcein-AM is a non-fluorescent acetic ester of fluorescein which passively passes through the membranes of the viable cells and is transformed by the cytosolic esterases into fluorescent calcein, which provides an intense green signal at 530 nm and which is retained only by the cells having an intact plasma membrane. […]
Operating procedure—The chondrocytes (4×10^5) in suspension in 200 μl of PBS buffer at pH 7.4 are incubated (45 min at 37° C.) in darkness, in the presence of 5 μM calcein-AM. Next, 0.5 ml of PBS buffer at pH 7.4 is added to the suspension, which is immediately analysed by flow cytometry in the FL1 logarithmic mode (number of cells counted: 10,000).
The intensity of the fluorescence on a logarithmic scale is plotted on the x-axis and the relative number of cells is plotted on the y-axis.

[3] = system: human osteoarthritic chondrocytes; test: Cell proliferation test, PKH-26 flow cytometry; format: cell-based; conditions: 20 mM glycylglycine; cultured for 3 days; FIG. 2 curve C vs B
Protocol: as §1
Principle—Prior to being cultured, the chondrocytes were irreversibly labelled with a vital fluorescent membrane intercalator derived from arcidine orange, the PKH-26, with a view to following cell proliferation via flow cytometry, which entails a decrease in the overall fluorescence of the cells.
Operating procedure—10^6 chondrocytes in suspension in 1 ml of the “diluent C” of the labelling kit are added to 1 ml of a […] solution of PKH-26 in the same diluent. After 4 min of incubation at ambient temperature, the reaction is stopped by the addition of 2 ml of foetal calf serum and then, after incubating for one minute, 4 ml of complete DMEM medium are added. After centrifuging (5 min, 2000 g at 25° C.), the resulting sediment is washed 3 times with 10 ml of complete DMEM medium. The cells are then cultured for 3 days under the conditions described in example 1.2, detached from the support thereof according to the above-described method, placed back in suspension in a PBS buffer at pH 7.4 and analyzed by flow cytometry in the logarithmic mode FL2.

[4] = system: chondrocytes; test: Proliferation rate of the cells, glycylglycine concentration kinetics; format: cell-based, human; conditions: for Number of cells obtained / Proliferation rate after 3 days: 76,000 cells cultured for three days; for Proliferation rate/culture medium without Gly-Gly: three days
Protocol: The chondrocytes were cultured on uncoated culture plates with polystyrene wells, at 37° C. for 1 to 7 days in a CO2 atmosphere (5%), in the absence or presence of 20 mM of glycylglycine, in a DMEM medium containing 10% foetal calf serum supplemented with a mixture of antibiotics and antimyotics (10 U/ml penicillin, 10 mg/ml streptomycin, 0.025 mg/ml amphotericin B) and 2 mM L-glutamine. With a view to subsequent cytometric analyses, the chondrocytes were detached by incubating for 3 minutes in a pH 7.4 PBS buffer solution of trypsin (0.25 g/100 ml) and EDTA (0.2 g/100 ml) kept at 37° C. After 3 washings with PBS buffer at pH 7.4, and after counting the cells using a Malassez chamber, the chondrocytes were subjected to various flow cytometry analyses described hereinbelow. The table below compiles the proliferation rates of cells cultured in the absence or presence of various concentrations of glycylglycine. In order to carry out this test, 76,000 cells were cultured for three days under the culture conditions presented below.

[5] = system: human osteoarthritic chondrocytes; test: Culturing of chondrocytes with or without glycylglycine, cell counting; format: cell-based
Protocol: The articular cartilage was sampled under sterile conditions from an osteoarthritic patient. The chondrocytes were isolated according to the methods of Green (1971) and Kuettner et al (1982), by enzymatic dissociation of the cartilage in Dulbecco's DMEM medium supplemented with a mixture of antibiotics and antimycotics (10 U/ml penicillin, 10 mg/ml streptomycin, 0.025 mg/ml amphotericin B), 2 mM L-glutamine and 10% foetal calf serum. The cartilage was cut up into small fragments and incubated (37° C.; 20 min) in the aforegoing DMEM medium containing 1 mg/ml of sheep testicular hyaluronidase. The fragments were next washed in PBS buffer (Phosphate Saline Buffer) with a pH of 7.4, and then incubated (60 min, at 37° C.) in the same buffer containing 0.25 g/100 mL trypsin. The fragments of cartilage previously washed with the PBS buffer with a pH of 7.4 were finally dissociated via incubation (15 hrs at 37° C.) in the DMEM medium containing 0.2% collagenase of Clostridium histolyticum and 10% foetal calf serum. The cells were collected by centrifugation (15 min, 3000 g), washed 2 times with the complete DMEM medium and cultured under the conditions hereinbelow. The chondrocytes were cultured on uncoated culture plates with polystyrene wells, at 37° C. for 1 to 7 days in a CO2 atmosphere (5%), in the absence or presence of 20 mM of glycylglycine, in a DMEM medium containing 10% foetal calf serum supplemented with a mixture of antibiotics and antimyotics (10 U/ml penicillin, 10 mg/ml streptomycin, 0.025 mg/ml amphotericin B) and 2 mM L-glutamine. With a view to subsequent cytometric analyses, the chondrocytes were detached by incubating for 3 minutes in a pH 7.4 PBS buffer solution of trypsin (0.25 g/100 ml) and EDTA (0.2 g/100 ml) kept at 37° C. After 3 washings with PBS buffer at pH 7.4, and after counting the cells using a Malassez chamber, the chondrocytes were subjected to various flow cytometry analyses described hereinbelow. FIGS. 1A and 1B show this large-scale production of the chondrocytes. […]

SMILES: NCC(=O)O [glycine monomer, glycine, reference compound]
- proliferation of hybridoma cells in comparison with non-supplemented culture medium [1]: only very slightly increases

SMILES: NCC(=O)NCC(=O)O [glycylglycine] (H-Gly-Gly-OH)
- toxicity to / viability of the chondrocytes (calcein-AM) [2]: not toxic to the chondrocytes and does not reduce the viability thereof
- proliferation of hybridoma cells in comparison with non-supplemented culture medium [1]: only very slightly increases
- PKH-26 fluorescence / cell divisions compared with DMEM medium without glycylglycine [3]: the cell divisions were more numerous
- Number of cells obtained ([4]; 20 mM Gly-Gly): 190,000 cells/ml
- Proliferation rate after 3 days ([4]; 20 mM Gly-Gly): 150%
- Proliferation rate/culture medium without Gly-Gly ([4]; 20 mM Gly-Gly): 2.11
- Number of cells obtained ([4]; 50 mM Gly-Gly): 124,000 cells/ml
- Proliferation rate after 3 days ([4]; 50 mM Gly-Gly): 63%
- Proliferation rate/culture medium without Gly-Gly ([4]; 50 mM Gly-Gly): 1.38
- Number of cells obtained ([4]; 100 mM Gly-Gly): 145,000 cells/ml
- Proliferation rate after 3 days ([4]; 100 mM Gly-Gly): 91%
- Proliferation rate/culture medium without Gly-Gly ([4]; 100 mM Gly-Gly): 1.61
- Number of cells obtained ([4]; 200 mM Gly-Gly): 130,000 cells/ml
- Proliferation rate after 3 days ([4]; 200 mM Gly-Gly): 71%
- Proliferation rate/culture medium without Gly-Gly ([4]; 200 mM Gly-Gly): 1.44
- Number of cells obtained ([4]; 500 mM Gly-Gly): 112,000 cells/ml
- Proliferation rate after 3 days ([4]; 500 mM Gly-Gly): 47%
- Proliferation rate/culture medium without Gly-Gly ([4]; 500 mM Gly-Gly): 1.24
- proliferation rate in comparison with identical culture medium not supplemented with glycylglycine ([5]; 20 mM glycylglycine, DMEM medium, 7 days (FIGS. 1A and 1B), cell counting): multiplied by three
- proliferation rate in comparison with non-supplemented culture medium (summary statement) ([5]; glycylglycine added to the chondrocyte culture medium): multiplied by three, and even by seven
- dedifferentiation of the chondrocytes into fibroblasts ([5]; presence of glycylglycine in culture medium): blocks the dedifferentiation of the chondrocytes into fibroblasts
